Test results taken from patent US10189845B2, “4,6-substituted-pyrazolo[1,5-a]pyrazines as janus kinase inhibitors” (ARRAY BIOPHARMA INC., priority 2014, dated 2019).
Like-named read-outs stand apart in the source and are kept apart here.

Assays:
Assay type in all cases: biochemical
[1] = target: JAK3 (Homo sapiens (Human), UniProt P52333); test: JAK3 Inhibition Assay (Example D, Omnia kinase fluorescence peptide substrate assay)
Procedure, shortened: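 Mixture held 2 nM JAK3, 1 mM ATP and 10 μM Omnia Y7 peptide in 25 mM HEPES pH 7.4, 10 mM MgCl2, 0.01% Triton X-100, 1 mM DTT, 2% DMSO final. Sox fluorescence (ex 360/em 485 nm) was read every 50 s for 45 min. IC50 came from a 4-parameter logistic fit of percent of control.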

[2] = target: Human Tyk2 kinase domain (Homo sapiens (Human), UniProt P29597); test: Tyk2 Inhibition Assay (Example A, Omnia kinase fluorescence peptide substrate assay); settings: TYK2 Enzyme IC50 1 mM ATP, averaged IC50 ranges
Chain of Human Tyk2 kinase domain (P29597 886-1187): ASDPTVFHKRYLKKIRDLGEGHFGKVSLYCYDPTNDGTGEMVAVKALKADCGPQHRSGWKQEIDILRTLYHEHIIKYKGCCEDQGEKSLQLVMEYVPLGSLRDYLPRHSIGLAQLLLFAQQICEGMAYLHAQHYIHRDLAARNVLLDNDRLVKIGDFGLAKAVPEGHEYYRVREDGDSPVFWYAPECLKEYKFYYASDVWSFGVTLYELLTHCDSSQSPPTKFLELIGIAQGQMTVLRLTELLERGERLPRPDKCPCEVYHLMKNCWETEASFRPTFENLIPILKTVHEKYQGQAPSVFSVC
Procedure, shortened: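 Omnia Sox-peptide kinetic fluorescence assay (ex 360/em 485 nm, read every 50 s for 45 min) with 1 nM human Tyk2 kinase domain (aa 886–1187, His tag cleaved, baculovirus-expressed), 1 mM ATP, 8 μM Omnia Y12 peptide, in 25 mM HEPES pH 7.4, 10 mM MgCl2, 0.01% Triton X-100, 1 mM DTT, 2% DMSO. IC50 from 4-parameter logistic fit of percent of control.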

[3] = target: JAK1 (Homo sapiens (Human), UniProt P23458); test: JAK1 Inhibition Assay (Example B, Omnia kinase fluorescence peptide substrate assay)
Chain of JAK1 (P23458 whole entry): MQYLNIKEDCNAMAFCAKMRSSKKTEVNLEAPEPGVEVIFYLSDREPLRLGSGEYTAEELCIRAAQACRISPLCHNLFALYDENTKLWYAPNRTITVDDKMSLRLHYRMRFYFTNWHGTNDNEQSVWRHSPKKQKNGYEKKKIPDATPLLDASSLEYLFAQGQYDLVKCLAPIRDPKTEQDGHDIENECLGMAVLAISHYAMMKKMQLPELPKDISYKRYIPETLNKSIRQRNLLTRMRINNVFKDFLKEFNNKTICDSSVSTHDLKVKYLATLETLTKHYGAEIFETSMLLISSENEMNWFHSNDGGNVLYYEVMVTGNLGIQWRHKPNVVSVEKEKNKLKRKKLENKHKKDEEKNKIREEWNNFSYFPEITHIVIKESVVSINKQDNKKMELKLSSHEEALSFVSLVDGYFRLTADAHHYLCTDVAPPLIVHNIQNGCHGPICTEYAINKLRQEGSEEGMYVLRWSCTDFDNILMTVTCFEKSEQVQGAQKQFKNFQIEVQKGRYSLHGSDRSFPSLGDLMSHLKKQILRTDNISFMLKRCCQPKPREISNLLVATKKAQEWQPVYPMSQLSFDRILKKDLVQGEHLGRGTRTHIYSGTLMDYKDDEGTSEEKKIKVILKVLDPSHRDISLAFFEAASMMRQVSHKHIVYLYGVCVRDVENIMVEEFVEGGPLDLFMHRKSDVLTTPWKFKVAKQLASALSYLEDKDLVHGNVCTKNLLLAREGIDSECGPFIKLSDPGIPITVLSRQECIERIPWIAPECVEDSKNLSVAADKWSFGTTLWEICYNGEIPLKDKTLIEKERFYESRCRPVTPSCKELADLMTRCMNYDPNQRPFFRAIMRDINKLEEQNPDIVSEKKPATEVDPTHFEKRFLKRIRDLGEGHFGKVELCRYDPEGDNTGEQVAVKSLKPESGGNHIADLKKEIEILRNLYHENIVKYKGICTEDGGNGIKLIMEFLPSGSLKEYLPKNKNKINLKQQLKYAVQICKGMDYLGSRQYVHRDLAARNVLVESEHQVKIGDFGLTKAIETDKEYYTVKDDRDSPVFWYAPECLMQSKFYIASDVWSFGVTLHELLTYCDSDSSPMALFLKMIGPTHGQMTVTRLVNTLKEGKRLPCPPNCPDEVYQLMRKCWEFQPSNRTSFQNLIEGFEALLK
Procedure, shortened: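 Recombinant human JAK1 (12.5 nM) with 1 mM ATP and 8 μM Omnia Y12 Sox-peptide in 25 mM HEPES pH 7.4, 10 mM MgCl2, 0.01% Triton X-100, 1 mM DTT, 2% DMSO final. Phosphorylation read kinetically (ex 360/em 485 nm, 45 min); IC50 from 4-parameter fit of percent of control.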

[4] = target: JAK2 (Homo sapiens (Human), UniProt O60674); test: JAK2 Inhibition Assay (Example C, Omnia kinase fluorescence peptide substrate assay); settings: JAK2 Enzyme IC50 1 mM ATP, averaged IC50 ranges
Chain of JAK2 (O60674 whole entry): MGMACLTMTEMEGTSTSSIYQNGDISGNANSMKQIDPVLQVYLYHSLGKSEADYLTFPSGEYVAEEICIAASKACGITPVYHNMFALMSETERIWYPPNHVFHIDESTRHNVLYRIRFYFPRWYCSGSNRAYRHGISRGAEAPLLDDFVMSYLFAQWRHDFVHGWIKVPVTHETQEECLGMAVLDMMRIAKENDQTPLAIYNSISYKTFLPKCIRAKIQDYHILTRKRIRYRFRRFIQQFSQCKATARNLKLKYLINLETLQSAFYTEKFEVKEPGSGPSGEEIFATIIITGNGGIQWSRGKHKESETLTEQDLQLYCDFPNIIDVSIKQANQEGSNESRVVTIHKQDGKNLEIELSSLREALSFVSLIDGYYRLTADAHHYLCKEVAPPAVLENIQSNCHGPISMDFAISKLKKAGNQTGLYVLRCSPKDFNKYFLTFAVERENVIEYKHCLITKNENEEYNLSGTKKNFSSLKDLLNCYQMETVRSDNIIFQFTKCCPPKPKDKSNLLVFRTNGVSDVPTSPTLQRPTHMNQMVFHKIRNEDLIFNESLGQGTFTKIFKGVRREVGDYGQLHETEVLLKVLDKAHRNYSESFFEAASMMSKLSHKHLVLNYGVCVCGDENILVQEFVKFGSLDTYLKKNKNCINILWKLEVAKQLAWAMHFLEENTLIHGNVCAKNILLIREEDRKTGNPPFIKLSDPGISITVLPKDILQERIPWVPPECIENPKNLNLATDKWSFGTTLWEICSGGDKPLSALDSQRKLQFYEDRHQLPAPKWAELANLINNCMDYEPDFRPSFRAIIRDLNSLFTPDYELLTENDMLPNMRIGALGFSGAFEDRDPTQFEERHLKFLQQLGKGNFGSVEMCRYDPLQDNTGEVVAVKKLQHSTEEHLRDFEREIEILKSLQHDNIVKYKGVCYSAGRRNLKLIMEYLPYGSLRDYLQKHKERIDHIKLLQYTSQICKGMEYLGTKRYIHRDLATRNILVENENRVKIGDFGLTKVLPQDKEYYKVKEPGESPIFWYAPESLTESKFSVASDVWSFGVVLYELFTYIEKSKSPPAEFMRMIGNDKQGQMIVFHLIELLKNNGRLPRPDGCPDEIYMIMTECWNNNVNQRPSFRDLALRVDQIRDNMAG
Procedure, shortened: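 4 nM JAK2 with 1 mM ATP and 10 μM Omnia Y7 peptide in 25 mM HEPES pH 7.4, 10 mM MgCl2, 0.01% Triton X-100, 1 mM DTT, 2% DMSO. Sox fluorescence (ex 360/em 485 nm) read every 50 s for 45 min; IC50 from 4-parameter fit of percent of control.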

[5] = JAK1 Enzyme IC50 1 mM ATP, 1 mM ATP, averaged IC50 ranges

Chain of JAK3 (P52333 whole entry): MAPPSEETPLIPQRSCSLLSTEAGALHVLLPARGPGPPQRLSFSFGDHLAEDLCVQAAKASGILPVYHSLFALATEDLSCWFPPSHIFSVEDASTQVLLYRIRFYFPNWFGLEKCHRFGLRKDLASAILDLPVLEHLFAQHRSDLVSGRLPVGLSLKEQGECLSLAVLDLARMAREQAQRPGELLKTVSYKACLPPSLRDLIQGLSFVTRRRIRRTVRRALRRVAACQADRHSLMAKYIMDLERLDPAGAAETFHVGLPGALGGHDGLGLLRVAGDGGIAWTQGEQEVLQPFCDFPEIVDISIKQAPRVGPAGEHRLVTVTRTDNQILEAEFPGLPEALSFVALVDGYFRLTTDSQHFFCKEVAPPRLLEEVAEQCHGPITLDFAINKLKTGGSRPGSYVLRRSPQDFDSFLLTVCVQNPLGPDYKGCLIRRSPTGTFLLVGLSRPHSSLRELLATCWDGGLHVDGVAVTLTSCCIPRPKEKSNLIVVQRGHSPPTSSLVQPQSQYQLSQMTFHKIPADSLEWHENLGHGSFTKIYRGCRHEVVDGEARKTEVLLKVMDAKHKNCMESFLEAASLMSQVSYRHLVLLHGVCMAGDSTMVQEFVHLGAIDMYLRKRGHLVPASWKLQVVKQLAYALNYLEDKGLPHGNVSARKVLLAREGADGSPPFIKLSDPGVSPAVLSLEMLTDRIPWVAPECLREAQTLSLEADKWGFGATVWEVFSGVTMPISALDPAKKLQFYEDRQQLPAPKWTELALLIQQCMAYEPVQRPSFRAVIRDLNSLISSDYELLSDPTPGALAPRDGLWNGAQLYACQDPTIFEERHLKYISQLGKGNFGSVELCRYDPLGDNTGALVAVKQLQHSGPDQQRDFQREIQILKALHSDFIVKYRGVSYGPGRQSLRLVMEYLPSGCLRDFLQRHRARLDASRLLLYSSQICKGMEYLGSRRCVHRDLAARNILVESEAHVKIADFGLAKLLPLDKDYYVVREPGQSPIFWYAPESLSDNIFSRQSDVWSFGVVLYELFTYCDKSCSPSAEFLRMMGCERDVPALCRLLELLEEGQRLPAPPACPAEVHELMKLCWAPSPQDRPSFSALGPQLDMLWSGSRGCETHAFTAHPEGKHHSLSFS

| Structure (SMILES) | IC50 [1] [nM] | IC50 [2] [nM] | IC50 [3, 5] [nM] | IC50 [4] [nM] | IC50 [3] [nM] |
| --- | --- | --- | --- | --- | --- |
| CC(C)C[C@@H](C)n1cc(-c2nc(-c3cnn(C[C@H](O)CO)c3)cn3nccc23)cn1 [Example 78, (S)-3-(4-(4-(1-((R)-4-methylpentan-2-yl)-1H-pyrazol-4-yl)pyrazolo[1,5-a]pyrazin-6-yl)-1H-pyrazol-1-yl)propane-1,2-diol] | 1000 to 10000 | 100 to 1000 | 1000 to 10000 | 100 to 1000 | – |
| C[C@@H]1CCCC[C@H]1n1cc(-c2nc(-c3cnn(C(CO)CO)c3)cn3nccc23)cn1 (single isomer, unassigned) [Example 150] | 1000 to 10000 | 10 to 100 | – | 10 to 100 | 1000 to 10000 |
| CCC(CC)n1cc(-c2nc(-c3cnn(C[C@H](O)CC)c3)cn3nccc23)cn1 [Example 115, (R)-1-(4-(4-(1-(pentan-3-yl)-1H-pyrazol-4-yl)pyrazolo[1,5-a]pyrazin-6-yl)-1H-pyrazol-1-yl)butan-2-ol] | 1000 to 10000 | 10 to 100 | – | 10 to 100 | 100 to 1000 |
| CCC[C@@H](C)n1cc(-c2nc(-c3cnn(C(CO)CO)c3)cn3nccc23)cn1 [Example 83, (R)-2-(4-(4-(1-(pentan-2-yl)-1H-pyrazol-4-yl)pyrazolo[1,5-a]pyrazin-6-yl)-1H-pyrazol-1-yl)propane-1,3-diol] | 1000 to 10000 | 10 to 100 | – | 10 to 100 | 1000 to 10000 |
| CCC(CC)n1cc(-c2nc(-c3cnn([C@@H](C)[C@H](O)CO)c3)cn3nccc23)cn1 [Example 89, (2S,3S)-3-(4-(4-(1-(pentan-3-yl)-1H-pyrazol-4-yl)pyrazolo[1,5-a]pyrazin-6-yl)-1H-pyrazol-1-yl)butane-1,2-diol] | 1000 to 10000 | 10 to 100 | – | 10 to 100 | 100 to 1000 |
| CCC(CC)n1cc(-c2nc(-c3cnn(CCCS(C)(=O)=O)c3)cn3nccc23)cn1 [Example 7, 6-(1-(3-(methylsulfonyl)propyl)-1H-pyrazol-4-yl)-4-(l-(pentan-3-yl)-1H-pyrazol-4-yl)pyrazolo[1,5-a]pyrazine] | 1000 to 10000 | 10 to 100 | – | 10 to 100 | 1000 to 10000 |
| CCC(CC)n1cc(-c2nc(-c3cnn(CC(O)CN)c3)cn3nccc23)cn1 (centres unmarked) [Example 98, 1-amino-3-(4-(4-(1-(pentan-3-yl)-1H-pyrazol-4-yl)pyrazolo[1,5-a]pyrazin-6-yl)-1H-pyrazol-1-yl)propan-2-ol] | 1000 to 10000 | 10 to 100 | 1000 to 10000 | 10 to 100 | – |
| CCC(CC)n1cc(-c2nc(-c3cnn(C4CN(C(=O)C5CC5)C4)c3)cn3nccc23)cn1 [Example 43, cyclopropyl(3-(4-(4-(1-(pentan-3-yl)-1H-pyrazol-4-yl)pyrazolo[1,5-a]pyrazin-6-yl)-1H-pyrazol-1-yl)azetidin-l-yl)methanone] | 1000 to 10000 | 10 to 100 | – | 10 to 100 | 1000 to 10000 |
| CCC(CC)n1cc(-c2nc(-c3cnn(C4CN(C(=O)[C@H]5C[C@H](O)C5)C4)c3)cn3nccc23)cn1 [Example 179, (trans-3-hydroxycyclobutyl)(3-(4-(4-(1-(pentan-3-yl)-1H-pyrazol-4-yl)pyrazolo[1,5-a]pyrazin-6-yl)-1H-pyrazol-1-yl)azetidin-1-yl)methanone] | 1000 to 10000 | 10 to 100 | – | 10 to 100 | 1000 to 10000 |
| CC(C)C[C@@H](C)n1cc(-c2nc(-c3cnn(C[C@@H](O)CO)c3)cn3nccc23)cn1 [Example 77, (R)-3-(4-(4-(1-((R)-4-methylpentan-2-yl)-1H-pyrazol-4-yl)pyrazolo[1,5-a]pyrazin-6-yl)-1H-pyrazol-1-yl)propane-1,2-diol] | 1000 to 10000 | 100 to 1000 | 1000 to 10000 | 100 to 1000 | – |
| CCC(CC)n1cc(-c2nc(-c3cnn(C4CN(P(=O)(N(C)C)N(C)C)C4)c3)cn3nccc23)cn1 [Example 41, Bis-N,N-dimethyl-P-(3-(4-(4-(1-(pentan-3-yl)-1H-pyrazol-4-yl)pyrazolo[1,5-a]pyrazin-6-yl)-1H-pyrazol-1-yl)azetidin-1-yl)phosphonic amide] | 1000 to 10000 | 10 to 100 | – | 10 to 100 | 100 to 1000 |
| CCC(CC)n1cc(-c2nc(-c3cnn(C[C@H](CO)N(C)C)c3)cn3nccc23)cn1 [Example 131, (R)-2-(dimethylamino)-3-(4-(4-(1-(pentan-3-yl)-1H-pyrazol-4-yl)pyrazolo[1,5-a]pyrazin-6-yl)-1H-pyrazol-1-yl)propan-1-ol] | 1000 to 10000 | 10 to 100 | 100 to 1000 | 10 to 100 | – |
| CCC(C(=O)O)n1cc(-c2nc(-c3cnn(C)c3)cn3nccc23)cn1 (centres unmarked) [Example 44, 2-(4-(6-(1-methyl-1H-pyrazol-4-yl)pyrazolo[1,5-a]pyrazin-4-yl)-1H-pyrazol-1-yl)butanoic acid] | 1000 to 10000 | 10 to 100 | 1000 to 10000 | 1000 to 10000 | – |
| CC[C@H](C)n1cc(-c2nc(-c3cnn(C(CO)CO)c3)cn3nccc23)cn1 [Example 84, (S)-2-(4-(4-(1-(sec-butyl)-1H-pyrazol-4-yl)pyrazolo[1,5-a]pyrazin-6-yl)-1H-pyrazol-1-yl)propane-1,3-diol] | 1000 to 10000 | 10 to 100 | – | 10 to 100 | 10 to 100 |
| CCC(CC)n1cc(-c2nc(-c3cnn([C@H](C)[C@H](C)O)c3)cn3nccc23)cn1 (single isomer, unassigned) [Example 158] | 1000 to 10000 | 10 to 100 | 10 to 100 | 10 to 100 | – |
| CCC(CC)n1cc(-c2nc(-c3cnn(C[C@@H](O)CN(C)C)c3)cn3nccc23)cn1 [Example 101, (S)-1-(dimethylamino)-3-(4-(4-(1-(pentan-3-yl)-1H-pyrazol-4-yl)pyrazolo[1,5-a]pyrazin-6-yl)-1H-pyrazol-1-yl)propan-2-ol] | 1000 to 10000 | 10 to 100 | 1000 to 10000 | 10 to 100 | – |
| CCC(CC)n1cc(-c2nc(-c3cnn(CC(=O)N(C)C)c3)cn3nccc23)cn1 [Example 5, N,N-dimethyl-2-(4-(4-(1-(pentan-3-yl)-1H-pyrazol-4-yl)pyrazolo[1,5-a]pyrazin-6-yl)-1H-pyrazol-1-yl)acetamide] | 1000 to 10000 | 10 to 100 | – | 100 to 1000 | 100 to 1000 |
| CCC(CC)n1cc(-c2nc(-c3cnn(C[C@@H]4CNCCO4)c3)cn3nccc23)cn1 [Example 127, (S)-2-((4-(4-(1-(pentan-3-yl)-1H-pyrazol-4-yl)pyrazolo[1,5-a]pyrazin-6-yl)-1H-pyrazol-1-yl)methyl)morpholine trifluoroacetic acid] | 1000 to 10000 | 100 to 1000 | – | 100 to 1000 | 1000 to 10000 |
| CCC(CC)n1cc(-c2nc(-c3cnn(C[C@H](O)CN(C)C)c3)cn3nccc23)cn1 [Example 99, (R)-1-(dimethylamino)-3-(4-(4-(1-(pentan-3-yl)-1H-pyrazol-4-yl)pyrazolo[1,5-a]pyrazin-6-yl)-1H-pyrazol-1-yl)propan-2-ol] | 1000 to 10000 | 10 to 100 | 1000 to 10000 | 10 to 100 | – |
| CCC(CC)n1cc(-c2nc(-c3cnn(CC[C@@H](O)CO)c3)cn3nccc23)cn1 [Example 64, (R)-4-(4-(4-(1-(pentan-3-yl)-1H-pyrazol-4-yl)pyrazolo[1,5-a]pyrazin-6-yl)-1H-pyrazol-1-yl)butane-1,2-diol] | 1000 to 10000 | 10 to 100 | 100 to 1000 | 10 to 100 | – |
| CCC(CC)n1cc(-c2nc(-c3cnn(CC(O)C(C)(C)C)c3)cn3nccc23)cn1 (centres unmarked) [Example 112, 3,3-dimethyl-1-(4-(4-(1-(pentan-3-yl)-1H-pyrazol-4-yl)pyrazolo[1,5-a]pyrazin-6-yl)-1H-pyrazol-1-yl)butan-2-ol] | 1000 to 10000 | 100 to 1000 | – | 100 to 1000 | 1000 to 10000 |
| CC(C)C[C@H](C)n1cc(-c2nc(-c3cnn(C[C@@H](O)CO)c3)cn3nccc23)cn1 [Example 75, (R)-3-(4-(4-(1-((S)-4-methylpentan-2-yl)-1H-pyrazol-4-yl)pyrazolo[1,5-a]pyrazin-6-yl)-1H-pyrazol-1-yl)propane-1,2-diol] | 1000 to 10000 | 100 to 1000 | 1000 to 10000 | 100 to 1000 | – |
| CC(C)C[C@H](C)n1cc(-c2nc(-c3cnn(C[C@H](O)CO)c3)cn3nccc23)cn1 [Example 76, (S)-3-(4-(4-(1-((S)-4-methylpentan-2-yl)-1H-pyrazol-4-yl)pyrazolo[1,5-a]pyrazin-6-yl)-1H-pyrazol-1-yl)propane-1,2-diol] | 1000 to 10000 | 100 to 1000 | 1000 to 10000 | 100 to 1000 | – |
